Laboratory results from PMC13085583 (Cell host & microbe, 2026).
Like-named read-outs stand apart in the source and are kept apart here.

System: CbCdnB
Settings: 10 mM Tris-HCl pH 7.4, 25 mM KCl, 20 mM MgCl2, 1 mM MnCl2, 37 °C

Chain of CbCdnB (A0A0L9Y448 1-469): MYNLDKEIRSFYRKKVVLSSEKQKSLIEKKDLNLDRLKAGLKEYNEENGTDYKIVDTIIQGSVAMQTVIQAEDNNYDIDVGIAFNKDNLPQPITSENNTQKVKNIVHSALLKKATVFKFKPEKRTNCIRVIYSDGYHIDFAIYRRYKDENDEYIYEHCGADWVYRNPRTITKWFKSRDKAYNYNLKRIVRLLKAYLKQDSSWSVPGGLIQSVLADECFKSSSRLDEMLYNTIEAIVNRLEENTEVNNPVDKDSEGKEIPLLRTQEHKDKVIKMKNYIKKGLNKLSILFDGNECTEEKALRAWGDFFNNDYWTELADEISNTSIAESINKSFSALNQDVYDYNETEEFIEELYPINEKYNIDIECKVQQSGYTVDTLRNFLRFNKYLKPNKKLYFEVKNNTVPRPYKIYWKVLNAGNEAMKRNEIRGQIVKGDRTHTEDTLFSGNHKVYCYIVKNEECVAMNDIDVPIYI

Structure (SMILES): Nc1ncnc2c1ncn2[C@@H]1O[C@H](COP(=O)(O)OP(=O)(O)OP(=O)(O)O)[C@@H](O)[C@H]1O [ATP]
- ELISA of product 2′,3′-cGAMP (with GTP): enzyme reaction products produced when the indicated synthase is incubated with ATP and GTP

Structure (SMILES): Nc1nc2c(ncn2[C@@H]2O[C@H](COP(=O)(O)OP(=O)(O)OP(=O)(O)O)[C@@H](O)[C@H]2O)c(=O)[nH]1 [GTP]
- ELISA of product 2′,3′-cGAMP (with ATP): enzyme reaction products produced when the indicated synthase is incubated with ATP and GTP
